Results taken from patent US11479551B2, “MTA-cooperative PRMT5 inhibitors” (Mirati Therapeutics, Inc., priority 2019, dated 2022).
Read-outs that look alike come from different tables or passages of the source.

Target: PRMT5/MEP50 complex (Homo sapiens (Human), UniProt O14744)
Test: PRMT5:MEP50 FlashPlate Assay (histone H4 peptide substrate, plus and minus MTA)
Type: biochemical
Procedure: The PRMT5 inhibitory activity of compounds of the present invention was determined using either a PRMT5:MEP50 FlashPlate Assay (Reaction Biology Corporation) or a PRMT5:MEP50 HotSpot Assay (Reaction Biology Corporation).
1. PRMT5:MEP50 FlashPlate Assay

[1] = IC50 + 2 μM MTA (nM), in the presence of 2 μM MTA
[2] = in the absence of MTA, read-out: IC50

Sequence of PRMT5/MEP50 complex (O14744 2-637): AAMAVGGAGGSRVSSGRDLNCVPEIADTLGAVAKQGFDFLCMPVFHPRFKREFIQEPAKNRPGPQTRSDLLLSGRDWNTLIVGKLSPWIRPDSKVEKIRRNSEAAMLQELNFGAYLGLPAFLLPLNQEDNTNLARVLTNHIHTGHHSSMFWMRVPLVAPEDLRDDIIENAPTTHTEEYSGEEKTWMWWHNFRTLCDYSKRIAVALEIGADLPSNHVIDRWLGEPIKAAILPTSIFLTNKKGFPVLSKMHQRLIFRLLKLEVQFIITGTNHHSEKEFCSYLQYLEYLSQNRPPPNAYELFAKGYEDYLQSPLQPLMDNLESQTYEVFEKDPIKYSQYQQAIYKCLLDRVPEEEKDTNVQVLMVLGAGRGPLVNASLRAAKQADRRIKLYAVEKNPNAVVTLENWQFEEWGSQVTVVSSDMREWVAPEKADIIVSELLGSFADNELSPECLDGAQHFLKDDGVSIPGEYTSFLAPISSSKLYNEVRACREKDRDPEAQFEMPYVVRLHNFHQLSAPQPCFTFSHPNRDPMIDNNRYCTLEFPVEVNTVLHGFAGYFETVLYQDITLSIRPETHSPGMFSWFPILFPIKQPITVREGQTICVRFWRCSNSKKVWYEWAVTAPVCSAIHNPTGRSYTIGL
Sequence of PRMT5/MEP50 complex (Q9BQA1 2-342 partner): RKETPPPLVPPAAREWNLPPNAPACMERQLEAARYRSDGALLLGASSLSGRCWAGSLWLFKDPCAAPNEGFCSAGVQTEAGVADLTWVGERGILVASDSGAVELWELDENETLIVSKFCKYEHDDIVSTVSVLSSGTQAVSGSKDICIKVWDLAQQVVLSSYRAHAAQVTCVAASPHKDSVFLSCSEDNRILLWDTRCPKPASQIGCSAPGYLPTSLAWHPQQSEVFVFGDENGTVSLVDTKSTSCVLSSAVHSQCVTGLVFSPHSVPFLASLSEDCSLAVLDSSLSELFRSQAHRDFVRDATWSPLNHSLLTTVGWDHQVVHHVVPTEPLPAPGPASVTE

Compound | IC50 [1] [nM] | IC50 [2] [nM]
NCc1n[nH]c(=O)c2ccc(C3CCOC3)cc12 (racemic) [Example 5-2, (R,S)-4-(aminomethyl)-6-(THF-3-yl)phthalazin-1(2H)-one] | 57000 | > 100000
Cn1cc(-c2ccc3c(CN)n[nH]c(=O)c3c2)cn1 [Example 1-8, 4-(aminomethyl)-7-(1-methyl-1H-pyrazol-4-yl)phthalazin-1(2H)-one] | 10000 | > 100000
NCc1n[nH]c(=O)c2ccc(-c3cncs3)cc12 [Example 3-1, 4-(aminomethyl)-6-(thiazol-5-yl)phthalazin-1(2H)-one] | 3700 | 89600
NCc1n[nH]c(=O)c2ccc(-c3ccnnc3)cc12 [Example 3-2, 4-(aminomethyl)-6-(pyridazin-4-yl)phthalazin-1(2H)-one] | 42000 | 10000
CCc1ccc(-c2ccc3c(=O)[nH]nc(CN)c3c2)cn1 [Example 3-3, 4-(aminomethyl)-6-(6-ethylpyridin-3-yl)phthalazin-1(2H)-one] | 25000 | 10000
NCc1n[nH]c(=O)c2ccc(-c3cnc4ccccc4c3)cc12 [Example 3-6, 4-(aminomethyl)-6-(quinolin-3-yl)phthalazin-1(2H)-one] | 5100 | 47100
NCc1n[nH]c(=O)c2ccc(-c3ccc(C(F)(F)F)nc3)cc12 [Example 3-8, 4-(aminomethyl)-6-(6-(trifluoromethyl)pyridin-3-yl)phthalazin-1(2H)-one] | > 1e+06 | > 1e+06
Cc1cncc(-c2ccc3c(=O)[nH]nc(CN)c3c2)c1 [Example 3-10, 4-(aminomethyl)-6-(5-methylpyridin-3-yl)phthalazin-1(2H)-one] | 100 | 3910
NCc1n[nH]c(=O)c2ccc(-c3cnc(C(F)(F)F)nc3)cc12 [Example 3-12, 4-(aminomethyl)-6-(2-(trifluoromethyl)pyrimidin-5-yl)phthalazin-1(2H)-one] | 210000 | > 1e+06
CCc1cncc(-c2ccc3c(=O)[nH]nc(CN)c3c2)c1 [Example 3-13, 4-(aminomethyl)-6-(5-ethylpyridin-3-yl)phthalazin-1(2H)-one] | 110 | 1420
CC(C)c1cncc(-c2ccc3c(=O)[nH]nc(CN)c3c2)c1 [Example 3-14, 4-(aminomethyl)-6-(5-isopropylpyridin-3-yl)phthalazin-1(2H)-one] | 17 | 413
CCn1cc(-c2ccc3c(=O)[nH]nc(CN)c3c2)cn1 [Example 3-15, 4-(aminomethyl)-6-(1-ethyl-1H-pyrazol-4-yl)phthalazin-1(2H)-one] | 650 | 18700
NCc1n[nH]c(=O)c2ccc(-c3cnn4ccccc34)cc12 [Example 3-16, 4-(aminomethyl)-6-(pyrazolo[1,5-a]pyridin-3-yl)phthalazin-1(2H)-one] | 13 | 186
CC(C)n1cc(-c2ccc3c(=O)[nH]nc(CN)c3c2)cn1 [Example 3-17, 4-(aminomethyl)-6-(1-isopropyl-1H-pyrazol-4-yl)phthalazin-1(2H)-one] | 770 | 15100
Cn1nc(C(F)(F)F)cc1-c1ccc2c(=O)[nH]nc(CN)c2c1 [Example 3-20, 4-(aminomethyl)-6-(1-methyl-3-(trifluoromethyl)-1H-pyrazol-5-yl)phthalazin-1(2H)-one] | 53000 | –
Cc1cc(-c2ccc3c(=O)[nH]nc(CN)c3c2)[nH]n1 [Example 3-21, 4-(aminomethyl)-6-(5-methyl-1H-pyrazol-3-yl)phthalazin-1(2H)-one] | 1800 | 39400
CCCn1cc(-c2ccc3c(=O)[nH]nc(CN)c3c2)cn1 [Example 3-23, 4-(aminomethyl)-6-(1-propyl-1H-pyrazol-4-yl)phthalazin-1(2H)-one] | 230 | 6430
Cc1nn(C)c(C)c1-c1ccc2c(=O)[nH]nc(CN)c2c1 [Example 3-24, 4-(aminomethyl)-6-(1,3,5-trimethyl-1H-pyrazol-4-yl)phthalazin-1(2H)-one] | 20000 | > 100000
Cn1cc(-c2ccc3c(=O)[nH]nc(CN)c3c2)c(C(F)(F)F)n1 [Example 3-25, 4-(aminomethyl)-6-(1-methyl-3-(trifluoromethyl)-1H-pyrazol-4-yl)phthalazin-1(2H)-one] | 71000 | > 100000
CC(C)CCn1cc(-c2ccc3c(=O)[nH]nc(CN)c3c2)cn1 [Example 3-26, 4-(aminomethyl)-6-(1-isopentyl-1H-pyrazol-4-yl)phthalazin-1(2H)-one] | 1600 | 20600
CC(C)Cn1cc(-c2ccc3c(=O)[nH]nc(CN)c3c2)cn1 [Example 3-27, 4-(aminomethyl)-6-(1-isobutyl-1H-pyrazol-4-yl)phthalazin-1(2H)-one] | 4200 | 59000
NCc1n[nH]c(=O)c2ccc(-c3cnco3)cc12 [Example 3-28, 4-(aminomethyl)-6-(oxazol-5-yl)phthalazin-1(2H)-one] | > 100000 | > 100000

More lines, now with the values ahead:

IC50 [1] [nM] | IC50 [2] [nM] | Compound
39000 | > 100000 | NCc1n[nH]c(=O)c2cc(-c3ccccn3)ccc12 [Example 1-4, 4-(aminomethyl)-7-(pyridin-2-yl)phthalazin-1(2H)-one]
1400 | 34800 | NCc1n[nH]c(=O)c2ccc(-c3cccnc3)cc12 [Example 1-5, 4-(aminomethyl)-6-(pyridin-3-yl)phthalazin-1(2H)-one]
1400 | 38300 | Cc1cc(-c2ccc3c(=O)[nH]nc(CN)c3c2)cnc1C [Example 3-4, 4-(aminomethyl)-6-(5,6-dimethylpyridin-3-yl)phthalazin-1(2H)-one]
7400 | 87900 | Cc1ccc(-c2ccc3c(=O)[nH]nc(CN)c3c2)cn1 [Example 3-5, 4-(aminomethyl)-6-(6-methylpyridin-3-yl)phthalazin-1(2H)-one]
33 | 1230 | Cc1c(-c2ccc3c(=O)[nH]nc(CN)c3c2)cnn1C [Example 3-9, 4-(aminomethyl)-6-(1,5-dimethyl-1H-pyrazol-4-yl)phthalazin-1(2H)-one]
5000 | 131000 | Cc1ncc(-c2ccc3c(=O)[nH]nc(CN)c3c2)cn1 [Example 3-11, 4-(aminomethyl)-6-(2-methylpyrimidin-5-yl)phthalazin-1(2H)-one]
33000 | > 1e+06 | Cc1ncccc1-c1ccc2c(=O)[nH]nc(CN)c2c1 [Example 3-18, 4-(aminomethyl)-6-(2-methylpyridin-3-yl)phthalazin-1(2H)-one]
180 | 6360 | Cc1ccncc1-c1ccc2c(=O)[nH]nc(CN)c2c1 [Example 3-19, 4-(aminomethyl)-6-(4-methylpyridin-3-yl)phthalazin-1(2H)-one]
35000 | > 100000 | Cc1nn(C)cc1-c1ccc2c(=O)[nH]nc(CN)c2c1 [Example 3-22, 4-(aminomethyl)-6-(1,3-dimethyl-1H-pyrazol-4-yl)phthalazin-1(2H)-one]
10000 | – | Cn1cc(-c2ccc3c(=O)[nH]nc(CN)c3c2)c2cccnc21 [Example 3-29, 4-(aminomethyl)-6-(1-methyl-1H-pyrrolo[2,3-b]pyridin-3-yl)phthalazin-1(2H)-one]
